From article PMC9721424, “Novel N-methylsulfonyl-indole derivatives: biological activity and COX-2/5-LOX inhibitory effect with improved gastro protective profile and reduced cardio vascular risks” (Journal of Enzyme Inhibition and Medicinal Chemistry, 2022)

Key:
DPPH free radical assay = assay type: biochemical; details: 540 nm, 30 min, relative to Trolox
Method: Preparation of samples was occurred at the following concentrations: Samples 3a, 4a, 5b, 5d and 5e at final concentrations of 0.5 mg/ml in methanol: DMSO 9:1 v/v. Samples 4b and 4d at final concentrations 0.025 mg/ml in methanol: DMSO 9:1 v/v, sample 5a at final concentrations 0.25 mg/ml in methanol: DMSO 9:1 v/v, Sample 4c, 5c and 4e at final concentrations 0.05 mg/ml in methanol: DMSO 9:1 v/v, sample 3b at final concentration 0.75 mg/ml methanol: DMSO 9:1 v/v. A stock solution of 100 µM concentration of Trolox, a standard used in this experiment, was prepared in methanol from which seven concentrations were prepared, including 50, 40, 30, 20, 15, 10 and 5 µM.
The DPPH (2,2-diphenyl-1-picryl-hydrazyl-hydrate) free radical assay was carried out according to the method of Boly et al. 2016[39]. Briefly, freshly prepared DPPH reagent (100 µl, 0.1% in methanol) was added to 100 µl of the sample on 96 well plates (n = 6). The reaction was incubated at room temp for 30 min in the dark. After completion of the incubation time, the reduction in DPPH colour intensity was measured at 540 nm. Data obtained was represented as means ± SD, according to the following equation, percentage inhibition = [(Average absorbance of blank – average absorbance of the test)/(Average absorbance of blank)] *100. The results were recorded using a microplate reader, FluoStar Omega.
Microsoft Excel® was used to analyse the obtained results. The IC50 values were calculated using Graph pad Prism 6® by converting the concentrations to their logarithmic value and selecting the non-linear inhibitor regression equation (log (inhibitor) vs. normalised response – variable slope equation). The methods used and the final test report (R-SO7320) were obtained from Nawah Scientific.

[1] = system: TNF-α in RAW264.7 macrophage cells; test: In vitro measurement of TNF-α in RAW264.7 macrophage cells (RT-qPCR); assay type: cell-based
Text: Both Lipopolysaccharides (LPS) and hispidin were purchased from Sigma (Sigma-Aldrich, St. Louis, MO, USA)[40]. The foetal bovine serum (FBS) and Dulbecco’s modified Eagle’s medium (DMEM) were purchased from Hyclone (General Electric Healthcare Life Sciences, Mississauga, Canada), penicillin streptomycin (P/S) was purchased from Solarbio (Solarbio life sciences, Beijing, P. R. China). Results of all in vitro anti-inflammatory screening were obtained from the confirmatory diagnostic unit, VACSERA, Egypt.
DMEM was used to cultivate the macrophage cells RAW264.7 (Shanghai BOGO Industrial Co., Ltd., Shanghai, China), and supplemented with 10% FBS and 1% P/S (100 U/ml and […], respectively). […] They were treated with various concentrations of hispidin, then with 1 μg/ml LPS for the indicated time.
PBS (1 ml/well) was used to wash the cells in 24-well plates. […] For the experiments, CL Buffer included MgCl2 (M1028; Sigma) or RNasin Plus RNase Inhibitor (N2615; Promega). Before use, both Bio-Rad SPR and CL buffer were equilibrated to room temperature. […] Carefully, the resulting lysates were collected and either analysed immediately or stored frozen ([…]).
RT-qPCR analysis was performed in one-step SYBR Green RT-qPCR. […] A CFX96 real-time PCR instrument (Bio-Rad) was used under the following protocol: 50uC for 10 min, 95uC for 5 min, 95uC for 10 s/61uC for 15 s/72uC for 30 s.
Total RNA purified from cells was used as an RT-qPCR quantification standard.

COX-2 = biological target: T1, COX-2 (Ovis aries, UniProt P79208); test: COX-2 inhibition, enzyme immune assay (EIA) kit; assay type: biochemical, ovine
T1 sequence (P79208 17-603): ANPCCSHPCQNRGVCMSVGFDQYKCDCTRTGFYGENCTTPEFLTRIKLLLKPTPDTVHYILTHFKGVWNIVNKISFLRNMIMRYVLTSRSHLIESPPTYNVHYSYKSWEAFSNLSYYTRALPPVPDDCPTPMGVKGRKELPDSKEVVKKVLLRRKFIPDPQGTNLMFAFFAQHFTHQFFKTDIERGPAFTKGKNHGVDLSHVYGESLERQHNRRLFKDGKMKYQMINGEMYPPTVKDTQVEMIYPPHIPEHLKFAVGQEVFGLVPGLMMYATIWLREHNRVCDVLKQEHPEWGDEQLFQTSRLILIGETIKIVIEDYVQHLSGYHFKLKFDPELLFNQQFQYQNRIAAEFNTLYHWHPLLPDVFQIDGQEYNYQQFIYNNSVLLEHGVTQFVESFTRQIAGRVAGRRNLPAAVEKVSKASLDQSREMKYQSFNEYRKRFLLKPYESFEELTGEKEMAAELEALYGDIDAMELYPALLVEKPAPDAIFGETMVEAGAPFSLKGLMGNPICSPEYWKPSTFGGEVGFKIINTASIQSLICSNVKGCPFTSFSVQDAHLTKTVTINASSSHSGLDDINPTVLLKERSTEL

ovine COX-1 = biological target: T2, ovine COX-1 (Ovis aries, UniProt P05979); test: COX-1 inhibition, enzyme immune assay (EIA) kit
T2 sequence (P05979 25-600): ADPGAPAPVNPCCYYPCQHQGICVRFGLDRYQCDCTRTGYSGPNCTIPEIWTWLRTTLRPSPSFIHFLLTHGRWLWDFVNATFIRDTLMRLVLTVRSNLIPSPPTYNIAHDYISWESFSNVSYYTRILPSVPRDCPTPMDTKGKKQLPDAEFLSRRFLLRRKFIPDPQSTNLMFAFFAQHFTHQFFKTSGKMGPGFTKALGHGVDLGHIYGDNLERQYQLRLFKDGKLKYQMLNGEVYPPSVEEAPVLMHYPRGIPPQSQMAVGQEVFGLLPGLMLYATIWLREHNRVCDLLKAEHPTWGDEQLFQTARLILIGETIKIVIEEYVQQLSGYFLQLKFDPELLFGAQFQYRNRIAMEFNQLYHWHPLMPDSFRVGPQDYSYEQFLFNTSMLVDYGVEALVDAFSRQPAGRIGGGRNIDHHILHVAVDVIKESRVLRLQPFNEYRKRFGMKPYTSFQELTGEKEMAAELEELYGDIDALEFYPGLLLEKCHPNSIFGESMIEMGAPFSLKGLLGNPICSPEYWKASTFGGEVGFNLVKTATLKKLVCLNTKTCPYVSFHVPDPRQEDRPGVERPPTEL
Text: Colorimetric enzyme immunoassay (EIA) kits were done to screen for the isozyme-specific inhibition.

5-LOX enzyme = biological target: T3, 5-LOX enzyme (Homo sapiens, UniProt P09917); test: 5-LOX inhibition, Human Lipoxygenase Inhibitor Screening Assay (EIA) kit; assay type: biochemical
T3 construct: purchased Cayman Chemical K980-100
T3 sequence (P09917 1-674): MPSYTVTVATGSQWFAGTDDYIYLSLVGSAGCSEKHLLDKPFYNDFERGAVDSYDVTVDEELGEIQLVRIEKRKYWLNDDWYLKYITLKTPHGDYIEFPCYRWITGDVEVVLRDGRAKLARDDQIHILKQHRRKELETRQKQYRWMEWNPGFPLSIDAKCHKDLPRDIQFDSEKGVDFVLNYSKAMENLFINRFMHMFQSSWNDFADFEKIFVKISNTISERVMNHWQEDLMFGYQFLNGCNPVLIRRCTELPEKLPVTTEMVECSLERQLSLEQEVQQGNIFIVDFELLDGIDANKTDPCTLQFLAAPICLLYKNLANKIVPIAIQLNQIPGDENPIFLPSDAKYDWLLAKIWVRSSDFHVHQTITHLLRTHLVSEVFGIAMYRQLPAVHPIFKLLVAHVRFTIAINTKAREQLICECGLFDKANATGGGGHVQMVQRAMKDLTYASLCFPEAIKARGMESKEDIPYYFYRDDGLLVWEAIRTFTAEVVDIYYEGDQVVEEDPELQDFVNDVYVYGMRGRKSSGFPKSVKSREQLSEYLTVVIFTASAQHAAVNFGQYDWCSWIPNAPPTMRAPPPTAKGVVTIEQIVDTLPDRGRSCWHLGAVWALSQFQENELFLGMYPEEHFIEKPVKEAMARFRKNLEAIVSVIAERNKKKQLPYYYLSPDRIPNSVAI
Method: The ability of the test compounds to inhibit the 5-LOX enzyme (IC50 value, μM) was detected using the Cayman Human Lipoxygenase Inhibitor Screening Assay (EIA) kit (catalog no. K980-100, Cayman Chemical). The IC50 values of test compounds were measured in µM according to the manufacturer’s instructions and reported method.

stomach = test: Histopathological examination of stomach; assay type: in vivo, rats; details: rat, in vivo
Method: In brief, the stomachs of each animal group’s rat were fixed in 10% neutral buffered formalin for 48 h. The sections were then dehydrated, cleared, fixed in paraffin, sectioned ([…]), and stained with H&E stain.

Q: What does the source list for `CS(=O)(=O)n1cc(/C=N/NC(=O)Nc2ccccc2)c2ccccc21` [Compound 3b, (E)-2{[1-(methylsulfonyl)-1H-indol-3yl]methylene}-N-phenylhydrazinecarboxamide]?
A: DPPH test results (µM trolox equivalent/ 1mg sample ± SD) (DPPH free radical assay): 14.38 ± 0.85 µM trolox equivalent/ 1mg sample; TNF-α fold change [1]: 0.71; S.I (IC50 COX-1/IC50 COX-2) (COX-2; COX-2 selectivity index): 1.46; SI (COX-2; lab report, COX1/COX2): 1.455; melting point: 234 to 236 °C; IC50 (ovine COX-1; IC50 COX-1): 32 ± 0.91 µM; COX1 %inh (ovine COX-1; conc 0.1 (μM)): 3.48%; COX1 %inh (ovine COX-1; conc 1 (μM)): 11.6%; COX1 %inh (ovine COX-1; conc 10 (μM)): 30.5%; COX1 %inh (ovine COX-1; conc 100 (μM)): 68.5%; IC50 (5-LOX enzyme): 14.8 ± 0.78 µM; 5-LOX %inh (5-LOX enzyme; conc 0.1 (μM)): 5.27%; 5-LOX %inh (5-LOX enzyme; conc 1 (μM)): 16.1%; 5-LOX %inh (5-LOX enzyme; conc 10 (μM)): 36.1%; 5-LOX %inh (5-LOX enzyme; conc 100 (μM)): 78.4%

Q: With `COc1ccc2c(c1)c(CC(=O)O)c(C)n2C(=O)c1ccc(Cl)cc1` [Indomethacin, reference compound] as the compound, how does the stomach histopathology finding (stomach) read?
A: multiple complete and perforating ulcers and superficial erosions
